Data set [1] is described as follows: Body weight after surgery at p21. The class given is in vivo, male C57Bl/6J mice. To be noted: 25 mg/kg s.c. at 2, 4, 24, 48 h post-injury or sham-operation. Here is the method: (§1) The controlled cortical impact model of TBI was used as previously described. TBI to the p21 mouse approximates a toddler-aged child, based upon the structural, biochemical and behavioral characteristics of this age. Pups were anaesthetized with 1.25% 2,2,2-tribromoethanol (Avertin; Sigma-Aldrich, St. Louis, MO) in isotonic saline (i.p. bolus at 0.02 mL/g body weight). After craniotomy, mice were subjected to a controlled cortical impact at 4.5 m/s velocity and 1.73 mm depth of penetration, for a sustained depression of 150 ms, using a 3.0 mm convex impactor tip. Mice were maintained on a water-circulating heating pad throughout surgery and recovery. Following impact, the scalp was closed with sutures and each animal administered 0.5 ml of isotonic saline subcutaneously (s.c.) to prevent post-operative dehydration. Sham-operated mice underwent identical surgical procedures, including craniotomy, without receiving the cortical impact. All mice were closely monitored for 1–2 hours post-surgery until return of the righting reflex and full mobilization. Mice were then returned to group-housing, and weighed post-surgery at days 1, 3, and weekly thereafter till the end of the study.

Data set [2] concerns MMP-9. Kind of data set: Inhibition constant for MMP-9. To be noted: more potent than the parent compound. The class given is biochemical.
In data set [3] the target is MMP-9. To be noted: cited from earlier work.
The target of the next data set is MMP-2. To be noted: cited from earlier work.
Data set [4] relates to controlled cortical impact TBI at p21. The data set can be described thus: Acute cell death (TUNEL, activated caspase-3) at 48 h after TBI at p21. The class given is in vivo, male C57Bl/6J mice. As to conditions: 48 h post-injury; 25 mg/kg s.c. Here is the method: as §1, with “Sham-operated mice underwent identical surgical procedures, including craniotomy, without receiving the cortical impact.” left out, “Mice were then returned to group-housing, and weighed post-surgery at days 1, 3, and weekly thereafter till the end of the study.” left out
Brain injured animals and sham controls were euthanized at 2 d post-injury. Dying cells were detected by double-labeling for terminal deoxynucleotidyl transferase-mediated dUTP nick 3’-end labeling (TUNEL) in combination with immunofluorescence for activated (cleaved) caspase-3, a hallmark of apoptosis. […] Immuno-positive cells with DAPI-positive nuclei were counted using Metamorph analysis software (Molecular Devices, Sunnyvale, CA).

Data set [5] shares this test system. The data set can be described thus: Resident-intruder test at adulthood after TBI at p21. In kind it is in vivo, male C57Bl/6J mice. To be noted: 25 mg/kg s.c. at 2, 4, 24, 48 h post-injury; tested at adulthood. Here is the method: as §1, with “Mice were then returned to group-housing, and weighed post-surgery at days 1, 3, and weekly thereafter till the end of the study.” left out
To assess social investigative behaviors, a novel stimulus mouse (matched for strain, age and sex) was presented into the established home cage of the test mouse, and investigative behaviors were quantified from video recordings as previously described.

A further data set deals with TBI in adult mice. As to conditions: equivalent dose; cited from earlier work.
Data set [6] relates to controlled cortical impact TBI at p21. The data set can be described thus: Stereological volumes and hippocampal cell counts at adulthood after TBI at p21. As to conditions: ~2 months post-injury. In kind it is in vivo, male C57Bl/6J mice. How it is done:
as §1
The treatment regime was based upon several considerations. […] Thirdly, we limited treatment to a period of 48 h post-injury in order to minimize potential off-target effects on ongoing brain development processes at this time, given the known roles that these gelatinases play in postnatal synaptic maturation. For acute studies (gelatin zymography and histology) animals were euthanized at 4 hours and for in situ zymography, they were euthanized 1 hour after the last injection. For long-term studies (behavioral and cognitive assessments and histology) animals were euthanized at ~2 months post-injury. Euthanasia was by overdose with 2.5% Avertin i.p. followed by decapitation or cardiac transperfusion as described below.
Upon completion of behavioral and cognitive assessments at ~ 2 months post-injury, anesthetized mice were perfused transcardially with ice-cold saline followed by 4% paraformaldehyde in 0.1M PBS. Collected brains were post-fixed overnight in 4% PFA and then transferred into a 30% sucrose solution for 72 h before being embedded in Neg50^TM (Richard-Allan Scientific, Thermo Fisher Scientific, Fremont, CA). Serial coronal sections spanning the entire cortex were cut at 20 μm or 40 μm (for time points of 48 h or 2 months post-injury, respectively).
An estimation of intact cortical and hippocampal volumes was performed on 40 μm coronal sections stained with cresyl violet, collected at ~ 2 months post-injury. The unbiased Cavalieri method was performed with StereoInvestigator software (MicroBrightField v10.21.1, Williston, VT, USA), using a Nikon E600W microscope configured with a motorized stage, MAC 5000 controller and Retiga 2000R color digital camera (QImaging, Surrey, BC, Canada). Spanning Bregma 1.5 to -3.8 mm, 12–16 sections containing cortex and 7–10 sections containing hippocampus were assessed per brain, using a sampling interval of 8 and a grid size of either 200 μm or 75 μm for cortex and hippocampus, respectively. Measurements were confined to the dorsal hemispheres as previously described using a 2x objective for the cortex and 4x for the hippocampus. The Gundersen mean coefficient of error (m = 1) was maintained ≤0.03 for cortical volume estimates and ≤0.08 for the hippocampus and dentate gyrus (DG). Group means are expressed as estimated volume (mm³). Certain sections were excluded from stereological analyses due to poor tissue integrity, folding or incomplete staining. In these cases, the section was deemed to be ‘missing’ and estimation for this section was calculated from the StereoInvestigator program based upon the adjacent sections. This was permitted for a maximum of 2 non-adjacent sections per brain. […]

The structures appear in SMILES notation.

Consider `O=S(=O)(CC1CS1)c1ccc(Oc2ccc(O)cc2)cc1` (stereo not drawn) [p-OH SB-3CT], for which the “animal weight over development” value in data set [1] is listed as “no differences between treatment or injury groups”. Also, the “potency at inhibiting MMP-9 relative to parent compound SB-3CT” value with MMP-9 [2] was found to be 2.5 fold. Besides, the values for the inhibition constant Ki at MMP-9 [3] and on MMP-2 were 160 ± 80 nM and 6 ± 3 nM, respectively. In addition, the “cell death by TUNEL staining compared to vehicle-treated controls” value in data set [4] is “A similar degree of cell death”. Moreover, in data set [4], the “cell death by activated caspase-3 compared to vehicle-treated controls” value was “A similar degree of cell death”. For the same molecule, the “injury-induced reduction in social investigation (resident-intruder)” value in data set [5] is recorded as “independent of treatment with p-OH SB-3CT”. In the data set with TBI in adult mice, the “functional and neuropathological outcomes after severe TBI in adult mice” value was “treatment-dependent improvement in functional and neuropathological outcomes”. For the same molecule, the contralateral cortical volume entry in data set [6] (TBI groups or sham groups compared) is listed as “did not alter contralateral cortical volumes”. Also, the “ipsilateral hippocampal volume, TBI mice vs vehicle-treated” value in data set [6] (TBI, p = 0.0835) is on record as “reduced hippocampal volumes, that did not reach statistical significance”. Moreover, the “contralateral dentate gyrus volume” value in data set [6] (sham and TBI mice) is “did not affect contralateral DG volume”. In addition, the contralateral hippocampus volume result in data set [6] (sham or TBI brains) is on record as “did not affect the contralateral hippocampus volume”. Also, the “ipsilateral dentate gyrus volume” value in data set [6] (sham or TBI groups) is on record as “no effect of drug treatment”. In addition, the ipsilateral cortical volume entry in data set [6] (sham or injured animals) is “did not influence ipsilateral cortical volumes”. Besides, the “ipsilateral hippocampal volume, sham mice vs vehicle-treated sham” value in data set [6] (sham, p = 0.0669) is on record as “tended to exhibit larger hippocampal volumes”.

The values are drawn from paper PMC4654502, “Early Gelatinase Activity Is Not a Determinant of Long-Term Recovery after Traumatic Brain Injury in the Immature Mouse” (PLoS ONE, 2015).
